Patent US11492385B2, “Long-acting co-agonists of the glucagon and GLP-1 receptors” (Merck Sharp & Dohme Corp., priority 2015, dated 2022)
Starred links: 1 amine or outer side, 2 acyl side, 3 side chain; linkers in the order of their positions; H or OH if unused. Non-standard residues stand in square brackets, D forms with d. Residues, ends and D or L forms follow the SMILES beside them. Groups on a side chain read outwards from the residue. *: point of attachment. C16 diacid = O=C(O)CCCCCCCCCCCCCCC(=O)*; γGlu = O=C(O)[C@H](CCC(=O)[*:2])N[*:1]; X1 = O=C([C@H]1CCC[C@@H]1N[*:1])[*:2]; Met(O2) = CS(=O)(=O)CC[C@H](N)C(=O)O; αMeF = C[C@](N)(Cc1ccccc1)C(=O)O; αMeD = C[C@](N)(CC(=O)O)C(=O)O; αMeL = CC(C)C[C@](C)(N)C(=O)O; AEEA = NCCOCCOCC(=O)O; Aib = CC(C)(N)C(=O)O

How the values were obtained:
human GCGR = biological target: T1, human GCGR (Homo sapiens, UniProt P47871); test: cAMP activity assay, cells expressing human GCGR; assay type: cell-based; conditions: for EC50: cAMP production, cells expressing human GCGR, assay buffer with or without 20% human serum (not stated which), read-out: GCGR EC50 human; for hGCGR/hGLP1R (hTone): ratio of human GCGR EC50 to human GLP1R EC50
T1 construct: expressed in transfected cells; kept under Blasticidin and Hygromycin selection
T1 sequence (P47871 26-477): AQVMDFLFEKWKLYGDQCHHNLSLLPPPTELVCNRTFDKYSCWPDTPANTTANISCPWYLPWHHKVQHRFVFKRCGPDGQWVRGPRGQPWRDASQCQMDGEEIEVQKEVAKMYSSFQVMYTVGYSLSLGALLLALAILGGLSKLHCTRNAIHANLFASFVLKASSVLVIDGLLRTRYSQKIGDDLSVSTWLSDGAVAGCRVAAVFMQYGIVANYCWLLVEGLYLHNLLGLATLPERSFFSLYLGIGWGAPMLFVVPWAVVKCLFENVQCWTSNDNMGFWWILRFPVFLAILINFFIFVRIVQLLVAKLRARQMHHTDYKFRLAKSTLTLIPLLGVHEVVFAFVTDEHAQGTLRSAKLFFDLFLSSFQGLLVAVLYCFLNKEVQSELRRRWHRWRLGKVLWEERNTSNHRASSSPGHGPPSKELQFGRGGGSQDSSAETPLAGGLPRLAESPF
Method in brief: (§1)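 Peptides as 10-point titrations from DMSO tested on cells expressing human GLP1R or GCGR. cAMP measured by luminescent kit after overnight room-temperature incubation in the dark. EC50 from four-parameter logistic fit; native GLP-1 and glucagon as controls.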

human GLP1R = biological target: T2, human GLP1R (Homo sapiens, UniProt P43220); test: cAMP activity assay, cells expressing human GLP1R; assay type: cell-based; conditions: cAMP production, assay buffer with or without 20% human serum (not stated which)
T2 construct: expressed in transfected cells; kept under Blasticidin and Hygromycin selection
T2 sequence (P43220 24-463): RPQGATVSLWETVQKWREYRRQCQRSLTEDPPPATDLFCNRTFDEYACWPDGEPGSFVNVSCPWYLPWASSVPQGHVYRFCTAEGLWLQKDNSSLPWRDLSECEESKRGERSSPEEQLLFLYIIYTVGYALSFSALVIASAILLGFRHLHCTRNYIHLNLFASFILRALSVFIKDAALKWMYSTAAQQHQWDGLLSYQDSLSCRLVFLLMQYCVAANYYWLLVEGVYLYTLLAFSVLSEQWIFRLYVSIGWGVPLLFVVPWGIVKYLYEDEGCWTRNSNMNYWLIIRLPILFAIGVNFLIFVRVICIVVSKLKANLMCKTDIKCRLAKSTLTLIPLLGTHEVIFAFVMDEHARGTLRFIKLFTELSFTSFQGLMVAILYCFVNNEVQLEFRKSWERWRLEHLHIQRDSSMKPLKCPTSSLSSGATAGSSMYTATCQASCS
Method in brief: as §1

| SMILES | EC50 (human GCGR) | hGCGR/hGLP1R (hTone) (human GCGR) | EC50 (human GLP1R) |
| --- | --- | --- | --- |
| CC(C)C[C@H](NC(=O)[C@H](Cc1ccc(O)cc1)NC(=O)[C@H]1CCC[C@@H]1NC(=O)[C@H](CO)NC(=O)[C@H](Cc1ccc(O)cc1)NC(=O)[C@H](CC(=O)O)NC(=O)[C@H](CO)NC(=O)[C@@H](NC(=O)[C@H](Cc1ccccc1)NC(=O)[C@@H](NC(=O)CNC(=O)[C@H](CCC(N)=O)NC(=O)C(C)(C)NC(=O)[C@@H](N)Cc1c[nH]cn1)[C@@H](C)O)[C@@H](C)O)C(=O)N[C@@H](CC(=O)O)C(=O)NC(C)(C)C(=O)N[C@@H](CCCNC(=N)N)C(=O)N[C@@H](C)C(=O)N[C@@H](C)C(=O)N[C@@H](CCCCNC(=O)COCCOCCNC(=O)COCCOCCNC(=O)CC[C@H](NC(=O)CCCCCCCCCCCCCCC(=O)O)C(=O)O)C(=O)N[C@@H](CC(=O)O)C(=O)N[C@@H](Cc1ccccc1)C(=O)N[C@H](C(=O)N[C@H]1CCC[C@@H]1C(=O)N[C@@H](Cc1c[nH]c2ccccc12)C(=O)N[C@@H](CC(C)C)C(=O)N[C@@H](CCS(C)(=O)=O)C(=O)N[C@@H](CC(=O)O)C(=O)N[C@H](C(N)=O)[C@@H](C)O)C(C)C [compound 36] (H-H[Aib]QGTFTSDYS[X1]YLD[Aib]RAAK([AEEA-AEEA-γGlu-C16 diacid])DFV[X1]WL[Met(O2)]DT-NH2; N-terminus assumed) | 0.23 nM | 0.65 | 0.36 nM |
| CC(C)C[C@H](NC(=O)[C@H](Cc1ccc(O)cc1)NC(=O)[C@H](CCCCN)NC(=O)[C@H](CO)NC(=O)[C@H](Cc1ccc(O)cc1)NC(=O)[C@](C)(CC(=O)O)NC(=O)[C@H](CO)NC(=O)[C@@H](NC(=O)[C@H](Cc1ccccc1)NC(=O)[C@@H](NC(=O)CNC(=O)[C@H](CCC(N)=O)NC(=O)C(C)(C)NC(=O)[C@@H](N)Cc1c[nH]cn1)[C@@H](C)O)[C@@H](C)O)C(=O)N[C@@H](CC(=O)O)C(=O)N[C@@H](C)C(=O)N[C@@H](CCCNC(=N)N)C(=O)N[C@@H](C)C(=O)N[C@@H](C)C(=O)N[C@@H](CCCCNC(=O)COCCOCCNC(=O)COCCOCCNC(=O)CC[C@H](NC(=O)CCCCCCCCCCCCCCC(=O)O)C(=O)O)C(=O)N[C@@H](CC(=O)O)C(=O)N[C@@H](Cc1ccccc1)C(=O)N[C@H](C(=O)N[C@@H](CCC(N)=O)C(=O)N[C@@H](Cc1c[nH]c2ccccc12)C(=O)N[C@@H](CC(C)C)C(=O)N[C@@H](CCS(C)(=O)=O)C(=O)N[C@@H](CC(=O)O)C(=O)N[C@H](C(N)=O)[C@@H](C)O)C(C)C [compound 37] (H-H[Aib]QGTFTS[αMeD]YSKYLDARAAK([AEEA-AEEA-γGlu-C16 diacid])DFVQWL[Met(O2)]DT-NH2) | 0.67 nM | 6.24 | 0.11 nM |
| CC(C)C[C@H](NC(=O)[C@H](Cc1c[nH]c2ccccc12)NC(=O)[C@H](CCC(N)=O)NC(=O)[C@@H](NC(=O)[C@H](Cc1ccccc1)NC(=O)[C@H](CC(=O)O)NC(=O)[C@H](CCCCNC(=O)COCCOCCNC(=O)COCCOCCNC(=O)CC[C@H](NC(=O)CCCCCCCCCCCCCCC(=O)O)C(=O)O)NC(=O)[C@H](C)NC(=O)[C@H](C)NC(=O)[C@H](CCCNC(=N)N)NC(=O)[C@H](C)NC(=O)[C@H](CC(=O)O)NC(=O)[C@](C)(CC(C)C)NC(=O)[C@H](Cc1ccc(O)cc1)NC(=O)[C@H](CCCCN)NC(=O)[C@H](CO)NC(=O)[C@H](Cc1ccc(O)cc1)NC(=O)[C@H](CC(=O)O)NC(=O)[C@H](CO)NC(=O)[C@@H](NC(=O)[C@H](Cc1ccccc1)NC(=O)[C@@H](NC(=O)CNC(=O)[C@H](CCC(N)=O)NC(=O)C(C)(C)NC(=O)[C@@H](N)Cc1c[nH]cn1)[C@@H](C)O)[C@@H](C)O)C(C)C)C(=O)N[C@@H](CCS(C)(=O)=O)C(=O)N[C@@H](CC(=O)O)C(=O)N[C@H](C(N)=O)[C@@H](C)O [compound 38] (H-H[Aib]QGTFTSDYSKY[αMeL]DARAAK([AEEA-AEEA-γGlu-C16 diacid])DFVQWL[Met(O2)]DT-NH2) | 0.46 nM | 4.54 | 0.1 nM |
| CC(C)C[C@H](NC(=O)[C@H](Cc1ccc(O)cc1)NC(=O)[C@H](CCCCN)NC(=O)[C@H](CO)NC(=O)[C@H](Cc1ccc(O)cc1)NC(=O)[C@H](CC(=O)O)NC(=O)[C@H](CO)NC(=O)[C@@H](NC(=O)[C@H](Cc1ccccc1)NC(=O)[C@@H](NC(=O)CNC(=O)[C@H](CCC(N)=O)NC(=O)C(C)(C)NC(=O)[C@@H](N)Cc1c[nH]cn1)[C@@H](C)O)[C@@H](C)O)C(=O)N[C@@H](CC(=O)O)C(=O)N[C@@H](C)C(=O)N[C@@H](CCCNC(=N)N)C(=O)N[C@@H](C)C(=O)N[C@@H](C)C(=O)N[C@@H](CCCCNC(=O)COCCOCCNC(=O)COCCOCCNC(=O)CC[C@H](NC(=O)CCCCCCCCCCCCCCC(=O)O)C(=O)O)C(=O)N[C@@H](CC(=O)O)C(=O)N[C@@](C)(Cc1ccccc1)C(=O)N[C@H](C(=O)N[C@@H](CCC(N)=O)C(=O)N[C@@H](Cc1c[nH]c2ccccc12)C(=O)N[C@@H](CC(C)C)C(=O)N[C@@H](CCS(C)(=O)=O)C(=O)N[C@@H](CC(=O)O)C(=O)N[C@H](C(N)=O)[C@@H](C)O)C(C)C [compound 39] (H-H[Aib]QGTFTSDYSKYLDARAAK([AEEA-AEEA-γGlu-C16 diacid])D[αMeF]VQWL[Met(O2)]DT-NH2) | 0.33 nM | 2.93 | 0.11 nM |
| CC(C)C[C@H](NC(=O)[C@H](Cc1ccc(O)cc1)NC(=O)[C@H](CCCCN)NC(=O)[C@H](CO)NC(=O)[C@H](Cc1ccc(O)cc1)NC(=O)[C@H](CC(=O)O)NC(=O)[C@H](CO)NC(=O)[C@@H](NC(=O)[C@H](Cc1ccccc1)NC(=O)[C@@H](NC(=O)CNC(=O)[C@H](CCC(N)=O)NC(=O)C(C)(C)NC(=O)[C@@H](N)Cc1c[nH]cn1)[C@@H](C)O)[C@@H](C)O)C(=O)N[C@@H](CC(=O)O)C(=O)N[C@@H](C)C(=O)N[C@@H](CCCNC(=N)N)C(=O)N[C@@H](C)C(=O)N[C@@H](C)C(=O)N[C@@H](CCCCNC(=O)COCCOCCNC(=O)COCCOCCNC(=O)CC[C@H](NC(=O)CCCCCCCCCCCCCCC(=O)O)C(=O)O)C(=O)N[C@@H](CC(=O)O)C(=O)N[C@@H](Cc1ccccc1)C(=O)N[C@H](C(=O)N[C@@H](CCC(N)=O)C(=O)N[C@@H](Cc1c[nH]c2ccccc12)C(=O)N[C@@](C)(CC(C)C)C(=O)N[C@@H](CCS(C)(=O)=O)C(=O)N[C@@H](CC(=O)O)C(=O)N[C@H](C(N)=O)[C@@H](C)O)C(C)C [compound 40] (H-H[Aib]QGTFTSDYSKYLDARAAK([AEEA-AEEA-γGlu-C16 diacid])DFVQW[αMeL][Met(O2)]DT-NH2) | 0.65 nM | 10.39 | 0.06 nM |

Next, values leading:

| EC50 (human GCGR) | hGCGR/hGLP1R (hTone) (human GCGR) | EC50 (human GLP1R) | SMILES |
| --- | --- | --- | --- |
| 0.05 nM | 3.13 | 0.02 nM | CC(C)C[C@H](NC(=O)[C@H](Cc1ccc(O)cc1)NC(=O)[C@H](CCCCN)NC(=O)[C@H](CO)NC(=O)[C@H](Cc1ccc(O)cc1)NC(=O)[C@H](CC(=O)O)NC(=O)[C@H](CO)NC(=O)[C@@H](NC(=O)[C@H](Cc1ccccc1)NC(=O)[C@@H](NC(=O)CNC(=O)[C@H](CCC(N)=O)NC(=O)C(C)(C)NC(=O)[C@@H](N)Cc1c[nH]cn1)[C@@H](C)O)[C@@H](C)O)C(=O)N[C@@H](CC(=O)O)C(=O)N[C@@H](C)C(=O)N[C@@H](CCCNC(=N)N)C(=O)N[C@@H](C)C(=O)N[C@@H](C)C(=O)N[C@@H](CCCCNC(=O)COCCOCCNC(=O)COCCOCCNC(=O)CC[C@H](NC(=O)CCCCCCCCCCCCCCC(=O)O)C(=O)O)C(=O)N[C@@H](CC(=O)O)C(=O)N[C@@H](Cc1ccccc1)C(=O)N[C@H](C(=O)N[C@@H](CCC(N)=O)C(=O)N[C@@H](Cc1c[nH]c2ccccc12)C(=O)N[C@@H](CC(C)C)C(=O)N[C@@H](CCS(C)(=O)=O)C(=O)N[C@@](C)(CC(=O)O)C(=O)N[C@H](C(N)=O)[C@@H](C)O)C(C)C [compound 41] (H-H[Aib]QGTFTSDYSKYLDARAAK([AEEA-AEEA-γGlu-C16 diacid])DFVQWL[Met(O2)][αMeD]T-NH2) |
| 0.13 nM | 3.21 | 0.04 nM | CC(C)C[C@H](NC(=O)[C@H](Cc1ccc(O)cc1)NC(=O)[C@H](CCCCN)NC(=O)[C@H](CO)NC(=O)[C@H](Cc1ccc(O)cc1)NC(=O)[C@H](CC(=O)O)NC(=O)[C@H](CO)NC(=O)[C@@H](NC(=O)[C@H](Cc1ccccc1)NC(=O)[C@@H](NC(=O)CNC(=O)[C@H](CCC(N)=O)NC(=O)C(C)(C)NC(=O)[C@@H](N)Cc1c[nH]cn1)[C@@H](C)O)[C@@H](C)O)C(=O)N[C@@H](CC(=O)O)C(=O)N[C@@H](C)C(=O)N[C@@H](CCCNC(=N)N)C(=O)N[C@@H](C)C(=O)N[C@@H](C)C(=O)N[C@@H](CCCCNC(=O)COCCOCCNC(=O)COCCOCCNC(=O)CC[C@H](NC(=O)CCCCCCCCCCCCCCC(=O)O)C(=O)O)C(=O)N[C@@](C)(CC(=O)O)C(=O)N[C@@H](Cc1ccccc1)C(=O)N[C@H](C(=O)N[C@@H](CCC(N)=O)C(=O)N[C@@H](Cc1c[nH]c2ccccc12)C(=O)N[C@@H](CC(C)C)C(=O)N[C@@H](CCS(C)(=O)=O)C(=O)N[C@@H](CC(=O)O)C(=O)N[C@H](C(N)=O)[C@@H](C)O)C(C)C [compound 42] (H-H[Aib]QGTFTSDYSKYLDARAAK([AEEA-AEEA-γGlu-C16 diacid])[αMeD]FVQWL[Met(O2)]DT-NH2) |
